Reference: ChEMBL document CHEMBL1128409, “Potent inhibitors of proteasome” (J Med Chem, 1995)
Where a SMILES comes first, the peptide text is derived from it. The star is where a group is joined. MeOSuc = COC(=O)CCC(=O)*

Each compound was assayed against 20S proteasome (assay: Compound was evaluated for inhibitory activity against 20S proteasome from human liver and brain).
Type: subcellular

| IC50 | SMILES |
| --- | --- |
| > 3000 nM | COC(=O)CCCCCCCC(=O)N[C@H](CCC/N=C(\N)NS(=O)(=O)c1c(C)c(C)c2c(c1C)CCC(C)(C)O2)C(=O)NC(C=O)CC(C)C (some centres not stated) |
| 95 nM | COC(=O)CCCCCCCC(=O)NC(CCC/N=C(\N)NS(=O)(=O)c1c(C)cc(OC)c(C)c1C)C(=O)NC(C=O)CC(C)C (configuration not stated) |
| 1000 nM | COC(=O)CCC(=O)N[C@@H](CCC(=O)O)C(=O)N[C@H](C(=O)N[C@@H](CCCCN)C(=O)N[C@@H](Cc1ccccc1)C(=O)O)C(C)C (MeOSuc-EVKF-OH) |
| 20 nM | COC(=O)CCCCCCCC(=O)NC(CCC/N=C(\N)NS(=O)(=O)c1c(C)c(C)c2c(c1C)CCC(C)(C)O2)C(=O)NC(C=O)CC(C)C (single isomer, unassigned) |

| SMILES | IC50 |
| --- | --- |
| CC(C)CC(C=O)NC(=O)C(CCC/N=C(\N)N[N+](=O)[O-])NC(=O)C(CCCCCCCCN1C(=O)c2ccccc2C1=O)C1CCCC1 (configuration not stated) | 2 nM |
| CC(C)CC(C=O)NC(=O)C(CCC/N=C(\N)N[N+](=O)[O-])NC(=O)C(CCCCCCCCC#N)C1CCCC1 (configuration not stated) | 6 nM |
| COC(=O)CCCCCCCC(=O)NC(CCC/N=C(\N)N[N+](=O)[O-])C(=O)NC(C=O)CC(C)C (configuration not stated) | 40 nM |
